Measurements as given in paper PMC13113287, “Synthesis and Biological Profiling of New 1,2,3,4-Tetrahydrobenzo[h]naphthyridine-Based Hybrids as Dual Inhibitors of β-Amyloid and Tau Aggregation with Anticholinesterase Activity” (Biomolecules, 2026).

Settings: reference drugs for assay validation; mean ± SD of three experiments in triplicate

| SMILES | Experimental Pe (PAMPA-BBB) |
| --- | --- |
| CN1C(C(=O)Nc2ccccn2)=C(O)c2ccccc2S1(=O)=O [Piroxicam] | 2.4 ± 0.07 10^−6 cm s^−1 |
| CCn1cc(C(=O)O)c(=O)c2cc(F)c(N3CCNCC3)cc21 [Norfloxacin] | 0.8 ± 0.05 10^−6 cm s^−1 |
